Among the test systems are NCI-H23; SF-539; SNB-78; SW-620; OVCAR-4; 786-0; OVCAR-8; UACC-62; HT-29; IGROV-1; UO-31; A549; HCT-15; MOLT-4; COLO 205; NCI-H522; SN12C; PC-3; HOP-92; T47D.
Holding throughout (assay): growth of human tumour cells (NCI), 48 h

From ChEMBL document CHEMBL1201862, “PubChem BioAssay data set” (2004) come the findings set out here.

The structures appear in SMILES notation.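 Dose response: 5 concentrations. Exposure: 48 h. Format: 96-well plates. Endpoint: linear interpolation; highest concentration if not reached. GI50 = concentration required for 50% inhibition of growth.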 The source made the active and inactive calls. Cut-off read from the data, not from the text of the source: active = GI50 up to about 1.1 µM and inactive = higher. Where only a bound is given, the exact number is not on record here.

On to `O=C1CC(c2c(-c3ccccc3)[nH]c3ccccc23)C(=O)N1c1ccccc1` (stereo not drawn), for which the GI50 with NCI-H23 is 78.7 µM (inactive); with SF-539, > 100 µM (inactive); in the assay on SNB-78 it was > 100 µM (inactive); in the assay on SW-620 it was > 100 µM (inactive); in the assay with OVCAR-4, 68.9 µM (inactive); in the assay with 786-0, > 100 µM (inactive). Besides, the GI50 was > 100 µM (inactive) with OVCAR-8; 54.2 µM (inactive) in the assay with UACC-62; > 100 µM (inactive) in the assay on HT-29; > 100 µM (inactive) with IGROV-1; 25.4 µM (inactive) in the assay on UO-31; 41.8 µM (inactive) in the assay with A549. Further, the GI50 in the assay with HCT-15 is 61.8 µM; in the assay on MOLT-4, 61.5 µM (inactive).

Consider `Cc1ccc(S(=O)(=O)OC(c2ccc(Cl)cc2Cl)C2OC(=O)c3ccccc32)cc1` (stereo not drawn), for which the GI50 is > 100 µM (inactive) in the assay on NCI-H23; 73.6 µM (inactive) in the assay on SF-539; > 100 µM (inactive) with SNB-78; 71.4 µM (inactive) in the assay with SW-620; 47.5 µM (inactive) in the assay with OVCAR-4; > 100 µM (inactive) with 786-0. Further, the GI50 was 83.2 µM (inactive) in the assay on COLO 205; > 100 µM (inactive) with OVCAR-8; 57.9 µM (inactive) in the assay with NCI-H522; 53.8 µM (inactive) in the assay on UACC-62; 38.6 µM (inactive) with HT-29; > 100 µM (inactive) in the assay on SN12C. Also, the GI50 is 97.3 µM (inactive) in the assay with IGROV-1; 27.4 µM (inactive) in the assay with UO-31; 68.5 µM (inactive) in the assay on A549; 56.5 µM in the assay with HCT-15; 30.2 µM (inactive) in the assay on MOLT-4.

`Cc1cc2c(cc1C)[n+]([O-])c(C(=O)C/C(=N/OCCCc1ccccc1)C(=O)Nc1cc(Cl)ccc1Cl)c(C)[n+]2[O-]`: the GI50 in the assay on NCI-H23, in the assay on SF-539, with SNB-78, with SW-620, in the assay with OVCAR-4 and in the assay on 786-0 was > 100 µM (inactive) in each case. In addition, the GI50 with COLO 205, in the assay on OVCAR-8, in the assay with NCI-H522, with UACC-62, in the assay on HT-29 and in the assay with SN12C was > 100 µM (inactive) each time. Further, the GI50 with IGROV-1 is > 100 µM (inactive); with A549 it was > 100 µM (inactive); in the assay on HCT-15, greater than 100 µM; with MOLT-4, 22.9 µM (inactive).

`Cc1ccc(SSCCCCS(=O)O)cc1`: the GI50 is 17.9 µM (inactive) with NCI-H23; 15 µM (inactive) in the assay with SF-539; 25.1 µM (inactive) in the assay with SNB-78; 17.5 µM (inactive) in the assay on SW-620; 15.8 µM (inactive) in the assay on OVCAR-4; 32 µM (inactive) in the assay on 786-0. For the same molecule, the GI50 was 19.5 µM (inactive) in the assay with COLO 205; > 10 µM (inactive) in the assay on OVCAR-8; 12.5 µM (inactive) in the assay with NCI-H522; 15.3 µM (inactive) in the assay on UACC-62; 21.7 µM (inactive) with HT-29; 11.4 µM (inactive) with SN12C. Moreover, the GI50 in the assay with IGROV-1 was 2.91 µM (inactive); with UO-31, 10.6 µM (inactive); in the assay with A549 it was 18.5 µM (inactive); in the assay with HCT-15 it was 17.5 µM; with MOLT-4, > 100 µM (inactive).

On to `O=C(Oc1cccnc1)c1cc2cc(CCl)ccc2oc1=O`, for which the GI50 is 19.6 µM (inactive) with NCI-H23; 44.2 µM (inactive) in the assay with SF-539; 35.3 µM (inactive) in the assay with SW-620; 24.3 µM (inactive) in the assay with OVCAR-4; 17.3 µM (inactive) with PC-3; 18.5 µM (inactive) in the assay with 786-0. Further, the GI50 in the assay with HOP-92 is 20.6 µM (inactive); with COLO 205, 27.2 µM (inactive); with OVCAR-8, 33.5 µM (inactive); with NCI-H522 it was 17 µM (inactive); in the assay on UACC-62 it was 8.71 µM (inactive); in the assay with HT-29 it was 17.1 µM (inactive). Also, the GI50 was 21.6 µM (inactive) in the assay on SN12C; 25.5 µM (inactive) in the assay on IGROV-1; 20 µM (inactive) in the assay on UO-31; 65.3 µM (inactive) in the assay on A549; 23.8 µM in the assay on HCT-15; 23.3 µM (inactive) in the assay on MOLT-4. The GI50 in the assay on T47D is 23.3 µM (inactive).
